Where a name gives a salt, the structure may show the parent alone.
Tests used:
[1] = system: spontaneously hypertensive rats; experiment: Anti-hypertensive activity in the unanesthetized spontaneously hypertensive rat (SHR) assay; format: in vivo; conditions: for minimal effective dose: Rattus norvegicus, read-out: Threshold Dose mg/kg intravenous; for minimal effective dose / Threshold Dose mg/kg intravenous: intravenous; for Oral Activity (Blood Pressure Lowering): intragastrically 50 mg/kg
Procedure: Male, unanesthetized spontaneously hypertensive rats, 11 to 16 weeks old were used in this test procedure. The compounds to be tested were administered intragastrically at a dose of 50 mg/kg or intraarterially/intravenously at a dose of 10 mg/kg.
Initial mean arterial blood pressure was measured directly via a previously implanted arterial catheter immediately before administration of the test compound. Blood pressure readings were made at 1, 2, 3, and 4 hours following administration of the test compound. […] Statistical comparisons were made using the paired Student's T test with two sided probability calculations.

[2] = molecular target: T1, vascular smooth muscle (isolated thoracic aorta segments) (Rattus norvegicus, UniProt P22002); experiment: Calcium antagonism in vascular smooth muscle (isolated thoracic aorta segments from male spontaneously hypertensive rats); format: cell-based; conditions: for Kb: read-out: pA2 (Ca++ Antagonism) (converted); for activity as vascular calcium antagonist (in words): isolated SHR aorta
T1 construct: The excised aorta segment was mounted in a tissue bath containing modified Krebs solution; from tissue; host or cells: thoracic aorta segments of male spontaneously hypertensive rats
Procedure: Isolated thoracic aorta segments from the male spontaneously hypertensive rat were utilized in this test procedure.
The excised aorta segment was mounted in a tissue bath containing modified Krebs solution. After depolarization of the tissue with potassium (100 mM), calcium, in cumulative concentrations of 1×10^-3 M, 3.2×10^-3 M, and 1×10^-2 M was injected into the bath to produce vascular smooth muscle contraction. The developed tension (in grams) is measured and control dose-response values obtained. After one hour of incubation with a test compound at 1×10^-6 M concentration, the same doses of calcium ions were repeated. The log dose-response curves of the control and after treatment were analyzed by linear regression. The pA2 value was calculated as a measure of calcium antagonism of the test compound. See Van Rossum, J. M., Arch. Int. Pharmacodyn, 143, 299-330, 1963.
Calcium ions play an essential role in induction and maintenance of vascular smooth muscle contractility. In potassium depolarized vascular smooth muscle, calcium antagonists may block the entry of calcium ions into the cell or act by other mechanisms to inhibit the contractions induced by calcium ions. The inhibition of calcium ion - induced contraction of vascular smooth muscle is used to test compounds for vascular calcium antagonism. Cardiovascular diseases such as arrythmias, angina-pectoris, hypertension, and peripheral vascular disease may be casually related to abnormalities in cellular handling of calcium ions.

[3] = 1×10^-6 M, one hour incubation, K+ (100 mM) depolarized SHR aorta

T1 sequence (P22002 whole entry): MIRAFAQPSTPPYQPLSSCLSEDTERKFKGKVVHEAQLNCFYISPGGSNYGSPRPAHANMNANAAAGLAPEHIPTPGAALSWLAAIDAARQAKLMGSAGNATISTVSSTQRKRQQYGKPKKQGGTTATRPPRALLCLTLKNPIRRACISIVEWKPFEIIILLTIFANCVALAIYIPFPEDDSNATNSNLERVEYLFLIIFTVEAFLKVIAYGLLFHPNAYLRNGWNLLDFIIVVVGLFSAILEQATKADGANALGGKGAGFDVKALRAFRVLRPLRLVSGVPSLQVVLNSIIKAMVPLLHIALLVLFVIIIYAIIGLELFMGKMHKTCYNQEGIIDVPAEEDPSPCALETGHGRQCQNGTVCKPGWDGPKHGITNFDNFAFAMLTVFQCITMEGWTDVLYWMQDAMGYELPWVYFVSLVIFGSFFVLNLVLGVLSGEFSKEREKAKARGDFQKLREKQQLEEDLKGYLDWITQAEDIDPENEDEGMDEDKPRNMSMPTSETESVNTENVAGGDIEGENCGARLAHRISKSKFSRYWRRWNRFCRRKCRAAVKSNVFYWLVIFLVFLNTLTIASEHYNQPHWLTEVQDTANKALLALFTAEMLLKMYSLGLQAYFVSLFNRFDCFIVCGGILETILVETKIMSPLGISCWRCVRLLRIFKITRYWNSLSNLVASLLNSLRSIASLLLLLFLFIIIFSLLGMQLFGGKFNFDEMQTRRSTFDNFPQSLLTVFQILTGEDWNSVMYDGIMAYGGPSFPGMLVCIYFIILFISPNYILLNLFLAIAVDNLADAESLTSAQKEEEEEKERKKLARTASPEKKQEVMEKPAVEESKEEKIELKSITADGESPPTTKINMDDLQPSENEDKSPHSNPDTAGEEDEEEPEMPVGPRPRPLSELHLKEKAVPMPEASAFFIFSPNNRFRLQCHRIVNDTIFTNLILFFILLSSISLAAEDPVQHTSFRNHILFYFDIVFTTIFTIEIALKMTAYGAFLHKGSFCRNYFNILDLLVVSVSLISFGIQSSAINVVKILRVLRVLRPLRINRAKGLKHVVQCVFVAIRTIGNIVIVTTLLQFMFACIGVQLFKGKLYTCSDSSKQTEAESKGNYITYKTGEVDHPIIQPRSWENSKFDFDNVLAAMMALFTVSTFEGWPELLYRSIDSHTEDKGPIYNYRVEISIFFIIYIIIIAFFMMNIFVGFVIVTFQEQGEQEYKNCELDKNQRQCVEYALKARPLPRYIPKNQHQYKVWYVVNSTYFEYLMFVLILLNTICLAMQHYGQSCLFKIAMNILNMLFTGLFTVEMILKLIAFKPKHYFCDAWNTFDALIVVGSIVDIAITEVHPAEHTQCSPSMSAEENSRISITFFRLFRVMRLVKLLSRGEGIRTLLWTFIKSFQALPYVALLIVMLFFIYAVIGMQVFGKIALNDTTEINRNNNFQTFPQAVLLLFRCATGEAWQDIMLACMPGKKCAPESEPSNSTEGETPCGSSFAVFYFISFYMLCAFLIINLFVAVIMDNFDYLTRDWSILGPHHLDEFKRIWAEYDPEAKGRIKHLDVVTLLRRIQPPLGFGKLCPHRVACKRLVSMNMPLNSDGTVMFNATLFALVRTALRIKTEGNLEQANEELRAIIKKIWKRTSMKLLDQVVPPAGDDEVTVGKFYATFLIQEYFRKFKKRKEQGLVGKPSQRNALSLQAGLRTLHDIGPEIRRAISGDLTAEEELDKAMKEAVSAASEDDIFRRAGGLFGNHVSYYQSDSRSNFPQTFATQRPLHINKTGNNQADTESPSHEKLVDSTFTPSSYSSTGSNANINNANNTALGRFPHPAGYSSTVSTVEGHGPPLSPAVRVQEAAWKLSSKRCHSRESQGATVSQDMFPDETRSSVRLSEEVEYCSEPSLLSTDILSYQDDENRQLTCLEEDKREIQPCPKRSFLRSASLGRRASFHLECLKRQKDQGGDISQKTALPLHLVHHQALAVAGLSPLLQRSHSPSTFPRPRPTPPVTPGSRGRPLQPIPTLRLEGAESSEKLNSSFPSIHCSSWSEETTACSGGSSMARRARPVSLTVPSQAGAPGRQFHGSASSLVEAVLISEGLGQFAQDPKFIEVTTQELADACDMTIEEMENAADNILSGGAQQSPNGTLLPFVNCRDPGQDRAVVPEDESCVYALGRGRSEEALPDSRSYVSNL

| Structure (SMILES) | Kb [2, 3] [µM] | SHR mm Hg @ 10 mg/kg intravenous (blood pressure lowering) ([1]; SHR) | minimal effective dose ([1]; SHR) [mg/kg] | also measured |
| --- | --- | --- | --- | --- |
| CC(C)(C)NC(=O)c1cc(OCc2ccccc2)ccc1CN1CCC(C(c2ccccc2)c2ccccc2)CC1 [Example 4, 2-[[4-(diphenylmethyl)-1-piperidinyl]methyl]-5-(phenylmethoxy)-N-(1,1-dimethylethyl) benzamide] | 0.186 | 29 mm Hg | 0.3 |  |
| COc1cc(CN2CCC(C(c3ccccc3)c3ccccc3)CC2)ccc1OCc1ccccc1 [Example 21] |  | 18 mm Hg | 0.1 | Oral Activity (Blood Pressure Lowering) ([1]; SHR): active |
| Clc1ccc(COc2ccc(CN3CCC(C(c4ccccc4)c4ccccc4)CC3)cc2)cc1Cl [Example 16, 1-[[4-[(3,4-dichlorophenyl)methoxy]phenyl]methyl]-4-(diphenylmethyl)piperidine, 2-butenedioate] |  | 81 mm Hg | 0.3 |  |
| Clc1ccc(COc2ccc(CN3CCC(C(c4ccccc4)c4ccccc4)CC3)cc2)cc1 [Example 15, 1-[[4-[(4-chlorophenyl)methoxy]phenyl]methyl]-4-(diphenylmethyl)piperidine, 2-butenedioate] |  | 89 mm Hg | 1 |  |
| COc1ccc(CCN(C)CCCC(C#N)(c2ccc(OC)c(OC)c2)C(C)C)cc1OC (stereo not shown) [Verapamil, reference compound] |  |  |  | activity as vascular calcium antagonist (in words) [2]: active |
| COC(=O)C1=C(C)NC(C)=C(C(=O)OC)C1c1ccccc1[N+](=O)[O-] [Nifedipine, reference compound] |  |  |  | activity as vascular calcium antagonist (in words) [2]: active |
| C[C@H](CS)C(=O)N1CCC[C@H]1C(=O)O [Captopril, reference compound] |  |  |  | activity in the hypertensive rat assay (in words) ([1]; SHR): active |
| Cc1ccc(COc2ccc(CN3CCC(C(c4ccccc4)c4ccccc4)CC3)cc2)cc1 [Example 7, 4-(diphenylmethyl)-1-[[4-[(4-methylphenyl)methoxy]phenyl]methyl] piperidine, 2-butendioate] |  | 56 mm Hg | 1 |  |
| C[C@](N)(Cc1ccc(O)c(O)c1)C(=O)O [Aldomet, reference compound] |  |  |  | activity in the hypertensive rat assay (in words) ([1]; SHR): active |
| Clc1cccc(Cl)c1N=C1NCCN1 [Clonidine, reference compound] |  |  |  | activity in the hypertensive rat assay (in words) ([1]; rat, in vivo): active |
| NNc1nncc2ccccc12 [Apresoline, reference compound] |  |  |  | activity in the hypertensive rat assay (in words) ([1]; rat, in vivo): active |
| COc1ccc([C@@H]2Sc3ccccc3N(CCN(C)C)C(=O)[C@@H]2OC(C)=O)cc1 [Diltiazem, reference compound] |  |  |  | activity as vascular calcium antagonist (in words) [2]: active |
| COc1ccc(CN2CCC(C(c3ccccc3)c3ccccc3)CC2)cc1OCc1ccccc1 [Example 3, 4-(diphenylmethyl)-1-[[[4-methoxy-3-(phenylmethoxy)phenyl]methyl]piperidine, ethanedioate] | 0.0257 | 79 mm Hg | 0.3 |  |
| Oc1ccc(CN2CCC(C(c3ccccc3)c3ccccc3)CC2)cc1 [Example 5, 4-[[4-(diphenylmethyl)-1-piperidinyl]methyl]phenol] |  |  |  | Oral Activity (Blood Pressure Lowering) ([1]; SHR): inactive |
| CCOC(=O)c1cc(OCc2ccccc2)ccc1CN1CCC(C(c2ccccc2)c2ccccc2)CC1 [Example 2, ethyl 2-[[4-(diphenylmethyl)-1-piperidinyl]methyl]-5-(phenylmethoxy)benzoate] |  | inactive |  | pA2 (Ca++ Antagonism) [2, 3]: inactive |

Second part, led by results:

| Kb [2, 3] [µM] | Structure (SMILES) | SHR mm Hg @ 10 mg/kg intravenous (blood pressure lowering) ([1]; SHR) | minimal effective dose ([1]; SHR) [mg/kg] | also measured |
| --- | --- | --- | --- | --- |
| 0.00871 | Fc1ccc(C(c2ccc(F)cc2)C2CCN(Cc3ccc(OCc4ccc(Cl)cc4)cc3)CC2)cc1 [Example 11, 4-[bis(4-fluorophenyl)methyl]-1-[[4-[(4-chlorophenyl)methoxy]phenyl]methyl]piperidine, hydrobromide] | 107 mm Hg | 0.3 |  |
| 0.0447 | c1ccc(C(c2ccccc2)C2CCN(Cc3ccc(OCC4CCCCC4)cc3)CC2)cc1 [Example 20] | inactive |  |  |
| 0.0269 | Fc1ccc(C(c2ccc(F)cc2)C2CCN(Cc3ccc(OCc4ccccc4)cc3)CC2)cc1 [Example 10, [bis(4-fluorophenyl)methyl]-1-[[4-(phenylmethoxy)phenyl]methyl]piperidine] | 67 mm Hg | 0.3 |  |
| 0.0302 | Fc1ccc(C(c2ccc(F)cc2)C2CCN(Cc3ccc(OCc4ccc(Cl)cc4Cl)cc3)CC2)cc1 [Example 12, 4-[bis(4-fluorophenyl)methyl]-1-[[4-[(2,4-dichlorophenyl)methoxy]phenyl]methyl] piperidine, hydrochloride] | 79 mm Hg | 0.1 |  |
| 0.0107 | c1ccc(COc2ccc(CN3CCC(C(c4ccccc4)c4ccccc4)CC3)cc2)cc1 [Example 6, 4-(diphenylmethyl)-1-[[4-(phenylmethoxy)phenyl]methyl] piperidine, hydrochloride] | 88 mm Hg | 0.3 |  |
| 0.0407 | Clc1ccc(COc2ccc(CN3CCC(C(c4ccccc4)c4ccccc4)CC3)cc2)c(Cl)c1 [Example 17, 1-[[4-[(2,4-dichlorophenyl)methoxy]phenyl]methyl]-4-(diphenylmethyl)piperidine] | inactive |  | Threshold Dose mg/kg intravenous ([1]; SHR): inactive |
| 0.0708 | Fc1ccccc1COc1ccc(CN2CCC(C(c3ccccc3)c3ccccc3)CC2)cc1 [Example 18, 4-(diphenylmethyl)-1-[[4-[(2-fluorophenyl)methoxy]phenyl]methyl]piperidine] | 65 mm Hg | 0.3 | Oral Activity (Blood Pressure Lowering) ([1]; SHR): active |
| 0.0389 | Clc1ccc(COc2ccc(CN3CCC(C(c4ccccc4)c4ccccc4)CC3)cc2)cc1 [Example 14, 1-[[4-[(4-chlorophenyl)methoxy]phenyl]methyl]-4-(diphenylmethyl)piperidine] |  |  | Oral Activity (Blood Pressure Lowering) ([1]; SHR): active |
| 0.0417 | COc1ccc(COc2ccc(CN3CCC(C(c4ccccc4)c4ccccc4)CC3)cc2)cc1 [Example 9, 4-(diphenylmethyl)-1-[[4-[(4-methoxyphenyl)methoxy]phenyl]methyl]piperidine] |  |  |  |
| 0.0182 | COc1ccc(COc2ccc(CN3CCC(C(c4ccc(F)cc4)c4ccc(F)cc4)CC3)cc2)cc1 [Example 8] | 50 mm Hg | 1 |  |
| 0.0129 | Fc1cccc(C(c2cccc(F)c2)C2CCN(Cc3ccc(OCc4ccccc4)cc3)CC2)c1 [Example 13] | inactive |  | Threshold Dose mg/kg intravenous ([1]; SHR): inactive |
| 0.457 | COc1ccc(CN2CCC(C(c3ccccc3)c3ccccc3)CC2)cc1OCc1ccc(Cl)cc1 [Example 19] | 75 mm Hg | 1 |  |

— patent US4650874A, “N-(aralkoxybenzyl)-4(benzhydryl) piperidines” (G. D. Searle & Co., priority 1984, dated 1987)
